Results as given in paper PMC4774972, “Activity and Predicted Nephrotoxicity of Synthetic Antibiotics Based on Polymyxin B” (Journal of Medicinal Chemistry, 2016).
Converted amounts (≈) assume the structure as drawn. Each block holds one compound with its values, some of them ahead of it.

How the values were obtained:
[1] = test system: primary human renal proximal tubule epithelial (hPT) cells; experiment: Nephrotoxicity assay, GGT release; assay type: cell-based; conditions: primary human kidney cells
Excerpt: (§1) Primary human renal proximal tubule epithelial (hPT) cells were isolated and used for in vitro prediction of drug-induced nephrotoxicity[63],[64],[69] by measuring the release of metabolism enzymes, LDH and GGT, as previously described.[70]

E. coli ATCC 25922 = experiment: microbe, parasite or virus in culture; assay type: cell-based, Escherichia coli; conditions: MHB, 5 × 10^5 CFU/mL, read visually after 18 h at 37 °C
Experimental: (§2) Bacteria were either obtained from American Type Culture Collection (ATCC; Manassas, VA, USA) or independent academic clinical isolate collections, as listed in Table S2. Bacteria were cultured in nutrient broth (NB; Bacto Laboratories, catalog no. 234000) or Muller Hinton broth (MHB; Bacto Laboratories, catalog no. 211443) at 37 °C overnight with shaking (∼180 rpm). A sample of each culture was then diluted 50-fold in fresh MHB and incubated at 37 °C for 1.5–3 h with shaking (∼180 rpm). Compound stock solutions were prepared as 0.64 or 2.56 mg/mL in water. The compounds, at twice the final desired concentration, were serially diluted 2-fold across the wells of 96-well plates (Polystyrene, Corning, catalogue No. 3370). Mid log phase bacterial cultures (after 1.5–3 h incubation) were diluted to a final concentration of 5 × 10^5 colony forming units (CFU)/mL, and 50 μL was added to each well giving a final compound concentration range of 32 μg/mL to 0.015 μg/mL (128–0.06 μg/mL for colistin and polymyxin B against the polymyxin resistant clinical isolates). MICs were determined visually after 18 h of incubation at 37 °C, with the MIC defined as the lowest compound concentration at which no bacterial growth was visible.
(§3) Table S2. Bacterial strains used for Minimum Inhibitory Concentration (MIC) […]
(§4) Organism Strain Strain description Strain Source
(§5) Escherichia coli ATCC 25922 FDA strain Seattle 1946 ATCC
(§6) Klebsiella pneumoniae ATCC 13883 Control strain ATCC
(§7) Klebsiella pneumoniae ATCC 700603 Multi-drug resistant ATCC
(§8) Klebsiella pneumoniae BAA-2146 Metallo-beta-lactamase- ATCC
(§9) Acinetobacter baumannii ATCC 19606 Type strain ATCC
(§10) Pseudomonas aeruginosa ATCC 27853 Type strain ATCC
(§11) Pseudomonas aeruginosa FADDI-PA070 Clinical isolate, Nation and Li labs, polymyxin resistant Monash University
(§12) Clinical isolate, Wang Hengzhuang, Pseudomonas aeruginosa PA9704 polymyxin resistant University Hospital of […]
(§13) Ptyela Clinical isolate, Ilias Karaiskos and Acinetobacter baumannii Carbapenem & Helen Giamarellou
(§14) Clinical isolate, Medicine, Hygeia
(§15) Klebsiella pneumoniae Koprana Carbapenem, & General Hospital, […]
(§16) Clinical isolate, (Instituto Dante […]
(§17) polymyxin resistant Cardiologia, São […]

HepG2 cells = experiment: Cytotoxicity assay (resazurin assay); assay type: cell-based, human; conditions: 4000 cells/well, 24 h incubation with compound, fluorescence 560/590
HEK293 cells = experiment: Cytotoxicity assay (resazurin assay); assay type: cell-based, human; conditions: 4000 cells/well, 24 h incubation with compound, fluorescence 560/590
P. aeruginosa ATCC 27853 = experiment: microbe, parasite or virus in culture; assay type: cell-based, Pseudomonas aeruginosa; conditions: MHB, 5 × 10^5 CFU/mL, read visually after 18 h at 37 °C
Experimental: as §2, §3, §4, §5, §6, §7, §8, §9, §10, §11, §12, §13, §14, §15, §16, §17

[2] = test system: K. pneumoniae CI Koprana 100650661:1, PmxR; experiment: microbe, parasite or virus in culture; assay type: cell-based, Klebsiella pneumoniae; conditions: carbapenem & polymyxin resistant clinical isolate, MHB, 5 × 10^5 CFU/mL, 18 h at 37 °C
[3] = test system: K. pneumoniae CI 138-16357-20362, PmxR; experiment: microbe, parasite or virus in culture; assay type: cell-based, Klebsiella pneumoniae; conditions: carbapenem & polymyxin resistant clinical isolate, MHB, 5 × 10^5 CFU/mL, 18 h at 37 °C
K. pneumoniae ATCC 13883 = experiment: microbe, parasite or virus in culture; assay type: cell-based, Klebsiella pneumoniae; conditions: MHB, 5 × 10^5 CFU/mL, read visually after 18 h at 37 °C
[4] = test system: A. baumannii CI Ptyela 100734512:2, PmxR; experiment: microbe, parasite or virus in culture; assay type: cell-based, Acinetobacter baumannii; conditions: carbapenem & polymyxin resistant clinical isolate, MHB, 5 × 10^5 CFU/mL, 18 h at 37 °C
[5] = test system: primary human renal proximal tubule epithelial (hPT) cells; experiment: Nephrotoxicity assay, LDH release; assay type: cell-based; conditions: primary human kidney cells
Excerpt: as §1

[6] = test system: S. aureus ATCC 25923, MSSA; experiment: microbe, parasite or virus in culture; assay type: cell-based, Staphylococcus aureus; conditions: MHB, 5 × 10^5 CFU/mL, read visually after 18 h at 37 °C
A. baumannii ATCC 19606 = assay type: cell-based, Acinetobacter baumannii; conditions: MHB, 5 × 10^5 CFU/mL, read visually after 18 h at 37 °C
Experimental: as §2, §3, §4, §5, §6, §7, §8, §9, §10, §11, §12, §13, §14, §15, §16, §17

[7] = test system: K. pneumoniae ATTC BAA-2146, NDM-1 pos; assay type: cell-based, Klebsiella pneumoniae; conditions: MHB, 5 × 10^5 CFU/mL, read visually after 18 h at 37 °C
Experimental: as §2, §3, §4, §5, §6, §7, §8, §9, §10, §11, §12, §13, §14, §15, §16, §17

[8] = test system: K. pneumoniae ATCC 700603, MDR; assay type: cell-based, Klebsiella pneumoniae; conditions: MHB, 5 × 10^5 CFU/mL, read visually after 18 h at 37 °C
Experimental: as §2, §3, §4, §5, §6, §7, §8, §9, §10, §11, §12, §13, §14, §15, §16, §17

[9] = test system: P. aeruginosa PA9704, PmxR; assay type: cell-based, Pseudomonas aeruginosa; conditions: polymyxin resistant clinical isolate; MHB, 5 × 10^5 CFU/mL, 18 h at 37 °C
Experimental: as §2, §3, §4, §5, §6, §7, §8, §9, §10, §11, §12, §13, §14, §15, §16, §17

[10] = test system: P. aeruginosa FADDI-PA070, PmxR; assay type: cell-based, Pseudomonas aeruginosa; conditions: polymyxin resistant clinical isolate; MHB, 5 × 10^5 CFU/mL, 18 h at 37 °C
Experimental: as §2, §3, §4, §5, §6, §7, §8, §9, §10, §11, §12, §13, §14, §15, §16, §17

MIC (E. coli ATCC 25922; Escherichia coli, ATCC25922, 18 h): 0.25 µg/mL (≈ 0.523 µM) | MIC (P. aeruginosa ATCC 27853; Pseudomonas aeruginosa, ATCC27853): 1 µg/mL (≈ 2.09 µM) | MIC ([2]; Klebsiella pneumoniae): > 32 µg/mL | MIC ([3]; Klebsiella pneumoniae): 1 µg/mL (≈ 2.09 µM) | MIC (K. pneumoniae ATCC 13883; Klebsiella pneumoniae, ATCC13883): 0.25 µg/mL (≈ 0.523 µM) | MIC ([4]; Acinetobacter baumannii): > 32 µg/mL
Compound: CNC(C)C1CCC(N)C(OC2C(N)CC(N)C(OC3OCC(C)(O)C(NC)C3O)C2O)O1 (centres unmarked) [Gentamicin, reference compound]
GGT release CC50 [1]: 33 µg/mL | HepG2 - CC50 (HepG2 cells): >300 µM | HEK293 CC50 (HEK293 cells): >300 µM | LDH release CC50 [5]: 33 µg/mL

Compound: 6Me-C7CO/ 6Me-C6CO Dab Thr Dab Dab Dab D-Leu Leu Dab Dab (lariat or depsi) [Colistin 2, polymyxin E (colistin), macrocyclic lipodecapeptide antibiotic, D-Leu at position-6, reference compound]
MIC S. aureus ATCC 25923, MSSA [6]: >128 µg/mL | GGT release CC50 [1]: 48 µg/mL | MIC E. coli ATCC 25922 (E. coli ATCC 25922): 0.25 µg/mL | MIC A. baumannii ATCC 19606 (A. baumannii ATCC 19606): 0.25 µg/mL | HepG2 - CC50 (HepG2 cells): >300 µM | HEK293 CC50 (HEK293 cells): >300 µM | MIC P. aeruginosa ATCC 27853 (P. aeruginosa ATCC 27853): 0.5 µg/mL | MIC K. pneumoniae ATTC BAA-2146, NDM-1 pos [7]: 0.25 µg/mL | MIC K. pneumoniae ATCC 700603, MDR [8]: 0.25 µg/mL | MIC K. pneumoniae CI Koprana 100650661:1, PmxR [2]: >128 µg/mL | MIC K. pneumoniae CI 138-16357-20362, PmxR [3]: 64 µg/mL | MIC K. pneumoniae ATCC 13883 (K. pneumoniae ATCC 13883): 0.25 µg/mL | MIC A. baumannii CI Ptyela 100734512:2, PmxR [4]: >64 µg/mL | LDH release CC50 [5]: 25 µg/mL | MIC P. aeruginosa PA9704, PmxR [9]: 128 µg/mL | MIC P. aeruginosa FADDI-PA070, PmxR [10]: >32 µg/mL
